Legend:
WEHI265.1 [1] = experiment: Antiinflammatory activity in LPS-induced mouse WEHI265.1 cells assessed as reduction in IL-6 level at 10 uM by ELISA relative to control; assay type: functional
WEHI265.1 [2] = experiment: Antiinflammatory activity in LPS-induced mouse WEHI265.1 cells assessed as reduction in IL-6 level by ELISA; assay type: functional, cell-based
Mus musculus = experiment: Antiinflammatory activity in LPS-induced mouse model assessed as reduction in IL-6 level in serum at 25 mg/kg, po relative to control; assay type: functional
[3] = molecular target: RAC-alpha serine/threonine-protein kinase (Homo sapiens) (UniProt P31749); experiment: Inhibition of AKT (unknown origin) assessed as reduction in […] phosphorylation at 10 ug/ml by cell based assay relative to control
RAC-alpha serine/threonine-protein kinase (Homo sapiens), sequence (P31749 whole entry): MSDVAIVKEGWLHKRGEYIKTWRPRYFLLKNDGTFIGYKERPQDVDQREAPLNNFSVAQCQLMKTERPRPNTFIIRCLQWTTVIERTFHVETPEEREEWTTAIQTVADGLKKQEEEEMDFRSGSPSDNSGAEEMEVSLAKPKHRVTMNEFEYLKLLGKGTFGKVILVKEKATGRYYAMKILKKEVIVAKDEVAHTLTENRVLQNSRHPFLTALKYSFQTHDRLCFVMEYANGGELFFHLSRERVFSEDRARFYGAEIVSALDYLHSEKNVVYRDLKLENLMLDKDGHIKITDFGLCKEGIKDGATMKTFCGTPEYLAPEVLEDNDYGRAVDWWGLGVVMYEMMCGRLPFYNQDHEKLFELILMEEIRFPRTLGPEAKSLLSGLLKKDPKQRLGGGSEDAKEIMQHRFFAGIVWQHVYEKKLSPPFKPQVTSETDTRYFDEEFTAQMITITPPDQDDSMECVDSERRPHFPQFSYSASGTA

Homo sapiens [4] = species: Homo sapiens; experiment: Inhibition of PI3K (unknown origin) assessed as reduction in PI3K phosphorylation by cell based assay at 10 ug/ml relative to control
Homo sapiens [5] = species: Homo sapiens; experiment: Inhibition of MAPK (unknown origin) assessed as reduction in […] phosphorylation by cell based assay at 10 ug/ml relative to control
RAW264.7 = experiment: Effect on IL-6 mRNA expression in mouse RAW264.7 cells at 10 ug/ml relative to control; assay type: functional

Structure (SMILES)	inhibition at 10 µM (WEHI265.1 [1]) [%]	IC50 (WEHI265.1 [2]) [µM]	also measured
Nc1ccccc1-c1c2n(c3c(c1=O)CCC3)CCN2	82	0.2	
O=c1c2c(n3c(c1-c1ccccc1)NCC3)CCC2	74	0.2	
O=c1c2c(n3c(c1-c1ccccc1)OCC3)CCC2	20	0.2	
O=c1c2c(n3c(c1-c1ccccc1Cl)NCC3)CCC2	90	0.2	
O=c1c2c(n3c(c1-c1ccccc1)SCC3)CCC2	52	0.2	
O=c1c2c(n3c(c1-c1ccccc1[N+](=O)[O-])NCC3)CCC2	73	0.2	
Oc1ccc(-c2cccc(-c3ccc(O)cc3)c2)cc1	85		inhibition in vivo at 25 mg/kg (Mus musculus): 88%
COC(=O)CCC(=O)Nc1ccccc1C(=O)OC			inhibition [3]: 70%; inhibition (Homo sapiens [4]): 51%; inhibition (Homo sapiens [5]): 54%; Activity (RAW264.7): 33%
COc1ccccc1-c1c2n(c3c(c1=O)CCC3)CCN2	82	0.2	
Oc1ccc(-c2cncc(-c3ccc(O)cc3)n2)cc1	55		
CC(=O)Nc1ccccc1-c1c2n(c3c(c1=O)CCC3)CCN2	74	0.2	
Oc1ccc(-c2cncc(-c3ccc(O)cc3)c2)cc1	73		inhibition in vivo at 25 mg/kg (Mus musculus): 71%
CN1CCn2c3c(c(=O)c(-c4ccccc4)c21)CCC3	43	0.2	

From ChEMBL document CHEMBL4627261, “A panoramic review of IL-6: Structure, pathophysiological roles and inhibitors” (Bioorg Med Chem, 2020)
